According to patent publication US20050266509A1, “Interaction of NMDA receptor with protein tyrosine phosphatase” (AGY Therapeutics, Inc., priority 2003, published 2005):
pIC50: −log10 of the molar value.

Experiments:
Format in all cases: biochemical
T Cell = target: T1, T Cell (Homo sapiens, UniProt P17706); test: FRET phosphatase assay, T Cell
T1 sequence (P17706 1-415): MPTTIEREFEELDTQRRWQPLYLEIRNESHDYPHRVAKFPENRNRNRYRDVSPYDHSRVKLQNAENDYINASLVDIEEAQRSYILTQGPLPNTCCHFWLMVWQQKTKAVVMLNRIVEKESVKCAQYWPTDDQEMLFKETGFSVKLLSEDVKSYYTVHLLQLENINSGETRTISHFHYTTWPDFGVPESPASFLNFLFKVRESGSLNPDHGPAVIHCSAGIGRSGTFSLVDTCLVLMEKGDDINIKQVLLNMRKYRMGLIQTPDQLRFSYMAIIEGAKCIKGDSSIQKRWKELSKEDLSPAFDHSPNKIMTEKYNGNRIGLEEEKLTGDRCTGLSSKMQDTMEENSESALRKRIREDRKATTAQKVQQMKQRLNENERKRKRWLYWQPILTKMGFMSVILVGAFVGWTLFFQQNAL
Procedure: (§1) For the enzyme activity assay, 2.5 μl of compound, 12.5 μl of enzyme, and 10 μl of substrate (separated by air gaps) are added to columns 3 through 24 by the Biomek FX in a single dispense. After the dispense, the tips are washed with DMSO and water for re-use between each quadrant. Once the assay plates are set up, they are incubated at 27° C. for 45 minutes. Then 20 μl of detection buffer is added to stop the reaction and to allow the Europium antibody (Eu-Ab) and streptavidin-APC to bind to the substrate.
(§2) The plates are then placed in the plate reader, an Analyst HT. Excitation light at 360 nm is used to excite the Europium antibody with an emission at 620 nm. Fluorescence resonance energy transfer (FRET) from Eu-Ab to APC will only occur when they are in close proximity. Therefore, when an APC emission is observed at 665 nm the enzyme has been inhibited from removing the phosphate group from the substrate. The FRET assay is time-resolved (TR), where there is a delay between excitation light and collection of emission signals. This reduces the amount of stray light created by short-lived fluorescing molecules. The Analyst HT measures APC and Europium emission signals and calculates the ratio between the two intensities. Typical intensities for the Europium is ˜2000 and APC is ˜600.
(§3) The following compounds were tested by FRET against the listed phosphatases, and the IC50 were obtained. […]

PTPIB = target: T2, PTPIB (Homo sapiens, UniProt P18031); test: FRET phosphatase assay, PTPIB
T2 sequence (P18031 1-435): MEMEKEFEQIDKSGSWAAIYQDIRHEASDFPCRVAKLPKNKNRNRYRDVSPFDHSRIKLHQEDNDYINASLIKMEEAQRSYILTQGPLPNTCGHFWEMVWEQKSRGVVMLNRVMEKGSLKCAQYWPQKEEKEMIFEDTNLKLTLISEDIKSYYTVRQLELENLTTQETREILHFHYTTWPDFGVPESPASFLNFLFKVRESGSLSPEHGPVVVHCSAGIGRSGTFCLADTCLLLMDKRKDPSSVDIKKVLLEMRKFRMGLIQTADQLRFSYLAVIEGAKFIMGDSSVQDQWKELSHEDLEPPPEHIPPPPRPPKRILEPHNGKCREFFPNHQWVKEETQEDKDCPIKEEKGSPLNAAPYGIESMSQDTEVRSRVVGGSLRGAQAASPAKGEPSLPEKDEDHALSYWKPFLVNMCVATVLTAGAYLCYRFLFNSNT
Procedure: as §1, §2, §3

CD45 = target: T3, CD45 (Homo sapiens, UniProt P08575); test: FRET phosphatase assay, CD45
T3 sequence (P08575 26-1306): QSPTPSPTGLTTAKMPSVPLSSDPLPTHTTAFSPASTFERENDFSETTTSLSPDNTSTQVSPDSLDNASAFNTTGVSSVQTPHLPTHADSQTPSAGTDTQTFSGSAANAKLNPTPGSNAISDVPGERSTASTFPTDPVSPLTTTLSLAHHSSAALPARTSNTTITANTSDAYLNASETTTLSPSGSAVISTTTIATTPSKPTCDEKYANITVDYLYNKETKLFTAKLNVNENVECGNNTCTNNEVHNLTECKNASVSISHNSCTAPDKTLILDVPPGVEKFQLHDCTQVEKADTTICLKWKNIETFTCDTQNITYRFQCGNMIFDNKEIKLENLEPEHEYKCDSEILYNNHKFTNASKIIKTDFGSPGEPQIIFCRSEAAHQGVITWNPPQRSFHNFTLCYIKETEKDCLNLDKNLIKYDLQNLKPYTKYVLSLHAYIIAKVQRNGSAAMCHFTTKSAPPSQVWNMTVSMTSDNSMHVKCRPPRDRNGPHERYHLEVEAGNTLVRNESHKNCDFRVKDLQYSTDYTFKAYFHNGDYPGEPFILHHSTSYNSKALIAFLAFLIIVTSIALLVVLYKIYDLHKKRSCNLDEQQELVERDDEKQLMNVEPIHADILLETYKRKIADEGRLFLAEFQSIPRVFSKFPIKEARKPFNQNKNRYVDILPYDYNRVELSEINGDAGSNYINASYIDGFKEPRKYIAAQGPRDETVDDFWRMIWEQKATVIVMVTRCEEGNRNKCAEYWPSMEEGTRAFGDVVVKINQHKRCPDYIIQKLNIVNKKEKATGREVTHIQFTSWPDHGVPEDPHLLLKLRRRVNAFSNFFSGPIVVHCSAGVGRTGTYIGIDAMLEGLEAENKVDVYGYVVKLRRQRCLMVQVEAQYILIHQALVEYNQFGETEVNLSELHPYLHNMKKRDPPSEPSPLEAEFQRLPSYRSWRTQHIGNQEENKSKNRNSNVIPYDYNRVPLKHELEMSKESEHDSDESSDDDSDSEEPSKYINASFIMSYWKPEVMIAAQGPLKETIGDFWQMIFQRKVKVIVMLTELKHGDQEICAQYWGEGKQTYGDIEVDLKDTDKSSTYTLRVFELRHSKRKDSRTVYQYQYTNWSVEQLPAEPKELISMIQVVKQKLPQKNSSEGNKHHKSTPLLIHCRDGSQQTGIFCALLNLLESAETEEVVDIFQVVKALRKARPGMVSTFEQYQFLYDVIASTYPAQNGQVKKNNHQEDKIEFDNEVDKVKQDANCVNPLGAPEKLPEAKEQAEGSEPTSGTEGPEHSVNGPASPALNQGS
Procedure: as §1, §2, §3

YOP51 = YOP51 (Yersinia enterocolitica, UniProt P15273); test: FRET phosphatase assay, YOP51
Chain of YOP51 (P15273 whole entry): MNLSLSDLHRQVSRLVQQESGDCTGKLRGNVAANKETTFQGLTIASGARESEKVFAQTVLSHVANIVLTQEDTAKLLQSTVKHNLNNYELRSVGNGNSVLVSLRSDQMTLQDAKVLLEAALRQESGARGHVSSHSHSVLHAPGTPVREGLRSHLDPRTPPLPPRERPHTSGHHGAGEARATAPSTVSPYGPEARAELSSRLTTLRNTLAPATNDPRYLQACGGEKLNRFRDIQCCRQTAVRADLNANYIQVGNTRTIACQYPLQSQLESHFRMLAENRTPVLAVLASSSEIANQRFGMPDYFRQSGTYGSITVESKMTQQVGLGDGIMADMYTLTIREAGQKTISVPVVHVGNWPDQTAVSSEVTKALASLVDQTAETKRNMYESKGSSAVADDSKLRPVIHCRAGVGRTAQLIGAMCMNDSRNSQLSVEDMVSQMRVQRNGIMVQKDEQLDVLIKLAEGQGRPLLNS
Procedure: as §1, §2, §3

With `CCOC(=O)C(=CC1=C/C(=C/N(C)C)C(=O)O1)C(=O)OCC` [AGY- 0046293] the pIC50 (T Cell) was 2.17, the pIC50 (PTPIB) was 4.39 and the pIC50 (CD45) was 4.05. For the same compound, the pIC50 (YOP51) was 5.38.
